Our source for the IC50 values is patent US8546414B2, “Ion channel modulators and methods of use” (Vertex Pharmaceuticals Incorporated, priority 2004, dated 2013).

Holding throughout (format): cell-based
One experiment deals with T1, CaV2.2 (Homo sapiens, UniProt Q00975).
T1 construct: expressed in transfected cells; host or cells: HEK293
The experiment in a line: VIPR optical membrane potential assay with electrical stimulation, CaV2.2. Conditions: Table 9, CaV 2.2 receptors. The procedure, abridged:
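HEK293 cells stably expressing CaV2.2 stained with CC2-DMPE/DiSBAC2(3) voltage-sensitive dyes (10 μM final CC2-DMPE, 30 min, RT), then compound added and cells electrically stimulated for 3-5 s. Read-out: background-subtracted 460/580 nm emission ratio; response R=Rf/Ri (post- vs pre-stimulus ratio); antagonism seen as reduced response.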

The next experiment addresses T2, NaV1.3 (Homo sapiens, UniProt Q9NY46).
T2 construct: expressed in transfected cells; host or cells: HEK293
Briefly: VIPR optical membrane potential assay with electrical stimulation, NaV1.3. Conditions: Table 9, NaV 1.3 receptors. The method, boiled down: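 HEK293 cells stably expressing NaV1.3, stained with CC2-DMPE (10 μM final) then DiSBAC2(3) with ABSC1, 30 min each at RT; compounds added with oxonol. Electrical stimulation for 3 s; 460/580 nm background-subtracted emission ratio Rf/Ri, normalised to tetracaine (positive) and untreated (negative) controls.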

The next experiment has as its target NaV1.8 (Homo sapiens, UniProt Q9Y5Y9). The experiment in a line: VIPR optical membrane potential assay, NaV1.8 (other subtypes in an analogous mode). The conditions noted are these: Table 9, NaV 1.8 receptors. The procedure, abridged:
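Cells expressing the NaV subtype stained with coumarin and DiSBAC2(3) membrane-potential dyes, then incubated with test compound for 20-30 minutes. Depolarization evoked by sodium addback and read optically on VIPR; block measured as reduced membrane-potential response, with tetracaine as positive control.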

T1 sequence (Q00975 whole entry): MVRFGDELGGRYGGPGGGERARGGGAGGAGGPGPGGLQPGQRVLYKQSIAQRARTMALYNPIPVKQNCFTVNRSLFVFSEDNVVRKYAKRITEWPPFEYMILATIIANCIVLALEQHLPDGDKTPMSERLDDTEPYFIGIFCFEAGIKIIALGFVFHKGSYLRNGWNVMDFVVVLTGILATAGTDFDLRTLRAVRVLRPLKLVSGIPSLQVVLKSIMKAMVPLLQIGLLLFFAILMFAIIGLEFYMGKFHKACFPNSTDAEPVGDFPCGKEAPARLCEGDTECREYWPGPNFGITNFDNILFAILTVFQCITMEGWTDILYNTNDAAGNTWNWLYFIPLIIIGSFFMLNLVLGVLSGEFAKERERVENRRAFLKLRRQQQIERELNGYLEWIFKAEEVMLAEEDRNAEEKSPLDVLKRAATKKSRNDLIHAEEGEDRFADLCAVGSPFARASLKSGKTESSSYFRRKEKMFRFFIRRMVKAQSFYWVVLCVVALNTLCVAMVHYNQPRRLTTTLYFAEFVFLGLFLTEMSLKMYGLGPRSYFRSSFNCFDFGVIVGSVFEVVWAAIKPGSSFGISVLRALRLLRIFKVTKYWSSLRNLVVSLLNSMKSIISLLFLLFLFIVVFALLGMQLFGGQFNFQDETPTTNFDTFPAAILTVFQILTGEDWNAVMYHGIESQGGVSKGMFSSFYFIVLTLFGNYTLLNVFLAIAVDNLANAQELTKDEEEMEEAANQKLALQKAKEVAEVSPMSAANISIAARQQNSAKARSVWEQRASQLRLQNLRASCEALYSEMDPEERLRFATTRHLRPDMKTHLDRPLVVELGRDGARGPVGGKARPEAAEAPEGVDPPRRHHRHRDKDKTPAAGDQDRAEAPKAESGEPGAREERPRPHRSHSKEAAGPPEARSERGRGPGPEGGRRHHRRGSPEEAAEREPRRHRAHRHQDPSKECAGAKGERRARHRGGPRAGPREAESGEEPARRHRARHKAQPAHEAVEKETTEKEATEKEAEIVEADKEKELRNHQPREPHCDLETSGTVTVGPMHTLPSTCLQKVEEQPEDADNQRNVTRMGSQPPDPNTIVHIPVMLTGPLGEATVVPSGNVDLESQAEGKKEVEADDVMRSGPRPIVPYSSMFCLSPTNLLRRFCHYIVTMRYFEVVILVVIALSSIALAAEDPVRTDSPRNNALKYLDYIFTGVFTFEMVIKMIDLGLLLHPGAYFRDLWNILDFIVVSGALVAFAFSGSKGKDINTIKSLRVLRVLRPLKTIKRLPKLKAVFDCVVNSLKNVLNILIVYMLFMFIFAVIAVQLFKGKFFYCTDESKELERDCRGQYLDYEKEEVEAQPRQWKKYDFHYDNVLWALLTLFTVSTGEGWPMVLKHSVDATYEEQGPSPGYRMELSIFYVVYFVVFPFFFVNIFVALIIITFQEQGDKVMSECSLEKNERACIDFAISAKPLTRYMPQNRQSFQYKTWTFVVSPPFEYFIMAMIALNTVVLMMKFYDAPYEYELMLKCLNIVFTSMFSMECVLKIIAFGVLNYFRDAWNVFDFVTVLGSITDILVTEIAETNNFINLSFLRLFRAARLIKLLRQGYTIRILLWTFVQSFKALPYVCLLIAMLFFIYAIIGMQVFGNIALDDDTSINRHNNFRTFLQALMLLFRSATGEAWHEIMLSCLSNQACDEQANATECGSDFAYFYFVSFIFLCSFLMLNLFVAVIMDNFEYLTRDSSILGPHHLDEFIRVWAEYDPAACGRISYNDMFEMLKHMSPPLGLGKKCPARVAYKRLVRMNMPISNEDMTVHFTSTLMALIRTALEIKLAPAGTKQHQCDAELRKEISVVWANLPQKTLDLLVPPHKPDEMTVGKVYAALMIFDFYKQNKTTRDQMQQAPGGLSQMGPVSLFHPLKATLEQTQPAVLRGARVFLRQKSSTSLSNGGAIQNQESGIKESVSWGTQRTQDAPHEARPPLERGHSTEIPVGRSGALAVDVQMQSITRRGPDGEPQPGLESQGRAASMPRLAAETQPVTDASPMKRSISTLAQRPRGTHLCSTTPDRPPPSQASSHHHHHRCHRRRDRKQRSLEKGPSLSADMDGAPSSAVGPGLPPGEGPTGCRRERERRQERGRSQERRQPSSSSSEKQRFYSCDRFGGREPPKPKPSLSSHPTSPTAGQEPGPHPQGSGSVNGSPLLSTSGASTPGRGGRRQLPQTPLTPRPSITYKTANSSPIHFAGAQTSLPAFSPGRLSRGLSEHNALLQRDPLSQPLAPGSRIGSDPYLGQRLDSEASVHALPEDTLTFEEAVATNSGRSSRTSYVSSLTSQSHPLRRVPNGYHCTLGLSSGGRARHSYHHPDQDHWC
T1 sequence (P54284 whole entry partner): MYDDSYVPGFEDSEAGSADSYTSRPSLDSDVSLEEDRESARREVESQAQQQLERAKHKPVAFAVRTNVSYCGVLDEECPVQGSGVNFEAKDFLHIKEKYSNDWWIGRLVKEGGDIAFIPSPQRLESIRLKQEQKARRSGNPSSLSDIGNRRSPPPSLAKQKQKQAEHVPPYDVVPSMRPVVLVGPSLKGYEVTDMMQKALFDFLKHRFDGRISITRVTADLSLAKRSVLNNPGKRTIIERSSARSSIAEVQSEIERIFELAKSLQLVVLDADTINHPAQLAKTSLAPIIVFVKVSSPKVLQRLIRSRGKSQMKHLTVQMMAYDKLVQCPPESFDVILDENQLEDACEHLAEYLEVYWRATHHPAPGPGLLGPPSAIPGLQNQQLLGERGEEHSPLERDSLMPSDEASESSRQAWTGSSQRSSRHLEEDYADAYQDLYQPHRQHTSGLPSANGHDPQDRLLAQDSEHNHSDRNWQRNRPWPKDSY
T1 sequence (P54289 25-956 partner limits assumed): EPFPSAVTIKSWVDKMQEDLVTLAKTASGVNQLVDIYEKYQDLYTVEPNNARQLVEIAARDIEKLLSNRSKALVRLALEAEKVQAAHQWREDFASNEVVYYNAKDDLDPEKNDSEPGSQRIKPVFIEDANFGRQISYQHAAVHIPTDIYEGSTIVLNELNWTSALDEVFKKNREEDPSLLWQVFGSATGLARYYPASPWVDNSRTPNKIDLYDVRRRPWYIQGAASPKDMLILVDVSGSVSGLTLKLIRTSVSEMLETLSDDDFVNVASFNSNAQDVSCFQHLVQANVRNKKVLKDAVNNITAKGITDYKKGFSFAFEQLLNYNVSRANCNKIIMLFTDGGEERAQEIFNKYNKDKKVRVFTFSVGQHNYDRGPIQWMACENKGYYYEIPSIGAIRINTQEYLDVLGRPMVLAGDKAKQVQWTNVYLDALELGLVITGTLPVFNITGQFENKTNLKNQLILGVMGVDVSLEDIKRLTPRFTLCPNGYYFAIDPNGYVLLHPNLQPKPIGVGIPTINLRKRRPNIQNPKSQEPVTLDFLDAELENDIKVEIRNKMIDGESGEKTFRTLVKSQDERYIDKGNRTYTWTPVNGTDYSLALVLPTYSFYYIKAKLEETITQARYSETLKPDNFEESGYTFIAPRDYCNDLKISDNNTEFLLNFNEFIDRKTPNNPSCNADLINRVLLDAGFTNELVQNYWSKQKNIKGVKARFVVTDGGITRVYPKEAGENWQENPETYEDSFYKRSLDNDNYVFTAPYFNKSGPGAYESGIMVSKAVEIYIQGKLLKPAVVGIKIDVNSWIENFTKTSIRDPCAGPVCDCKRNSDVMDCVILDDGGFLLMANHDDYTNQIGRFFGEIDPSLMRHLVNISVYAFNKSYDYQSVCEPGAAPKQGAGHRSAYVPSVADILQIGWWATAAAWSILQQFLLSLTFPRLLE
T1 sequence (P54289 957-1103 partner limits assumed): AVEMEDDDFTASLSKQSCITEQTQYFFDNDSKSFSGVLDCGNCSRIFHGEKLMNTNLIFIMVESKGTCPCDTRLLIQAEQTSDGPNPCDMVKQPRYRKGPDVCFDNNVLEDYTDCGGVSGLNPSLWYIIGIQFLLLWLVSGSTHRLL

One may read the IC50 as the point on the concentration scale where inhibition reaches its midpoint. A lower IC50 goes with inhibition by little substance. Consider `COc1cc2c(cc1OC)CN(C(=O)c1cnc(N3CCOCC3)nc1-c1ccccc1F)CC2` [compound 144], for which the IC50 against CaV2.2, on NaV1.3 and against NaV1.8 was > 10 µM in each case.
In the case of `Cc1nc(N2CCOCC2)nc(-c2ccccc2F)c1C(=O)N(Cc1ccccc1)C1CC1` [compound 145], the IC50 against CaV2.2 was 2 to 10 µM; at NaV1.3 it was 2 to 10 µM; at NaV1.8, > 10 µM.
On to `CC(C)N(Cc1ccc2c(c1)OCO2)C(=O)c1cnc(N2CCCCC2)nc1-c1ccccc1Cl` [compound 146], for which the IC50 at CaV2.2, at NaV1.3 and against NaV1.8 was 2 to 10 µM each time.
On to `CN1CCN(c2ncc(C(=O)N(Cc3ccccc3)C3CCCCC3)c(-c3ccccc3F)n2)CC1` [compound 147], for which the IC50 was 2 to 10 µM against CaV2.2, > 10 µM against NaV1.3 and > 10 µM against NaV1.8.
On to `CN1CCN(c2ncc(C(=O)N(Cc3ccccc3)C3CCCC3)c(-c3ccccc3F)n2)CC1` [compound 148], for which the IC50 against CaV2.2 is 2 to 10 µM; at NaV1.3, > 10 µM; against NaV1.8 it was > 10 µM.
Turning to `CC(C)N(C(=O)c1cnc(N2CCCCC2)nc1-c1ccccc1F)C1CCSC1` (stereo not drawn) [compound 149], the IC50 against CaV2.2, against NaV1.3 and against NaV1.8 was > 10 µM throughout.
On to `CC1Cc2ccccc2N1C(=O)c1cnc(N2CCOCC2)nc1-c1ccccc1F` (stereo not drawn) [compound 150], for which the IC50 on CaV2.2, against NaV1.3 and against NaV1.8 was > 10 µM throughout.
For `CC(C)N(C(=O)c1cnc(N2CCC3CCCCC3C2)nc1-c1ccccc1F)c1ccc2c(c1)OCCO2` (stereo not drawn) [compound 151], the IC50 against CaV2.2 is 2 to 10 µM; on NaV1.3, 2 to 10 µM; on NaV1.8, > 10 µM.
Take `CC(C)N(C(=O)c1cnc(N2CCCCC2)nc1-c1ccccc1F)c1cccc(N(C)C)c1` [compound 152]: the IC50 on CaV2.2 is 2 to 10 µM; against NaV1.3 it was 2 to 10 µM; on NaV1.8, > 10 µM.
As to `CC(C)N(Cc1ccccc1)C(=O)c1cnc(NCC(=O)O)nc1-c1ccccc1F` [compound 153], the IC50 on CaV2.2, against NaV1.3 and on NaV1.8 was > 10 µM throughout.
With `COc1cccc(N(C(=O)c2cnc(N3CCC4CCCCC4C3)nc2-c2ccccc2F)C2CCCC2)c1` (stereo not drawn) [compound 154], the IC50 at CaV2.2 is 2 to 10 µM; against NaV1.3, > 10 µM; on NaV1.8, > 10 µM.
On to `CC(C)N(C(=O)c1cnc(N2CCCCC2)nc1-c1ccccc1Cl)C1CCSC1` (stereo not drawn) [compound 155], for which the IC50 was 2 to 10 µM on CaV2.2, > 10 µM against NaV1.3 and > 10 µM against NaV1.8.
`C=CCN(CC=C)c1ncc(C(=O)N(Cc2ccccc2)C(C)C)c(-c2ccccc2F)n1` [compound 156]: the IC50 on CaV2.2 was < 2 µM; on NaV1.3, 2 to 10 µM; against NaV1.8, 2 to 10 µM.
For the molecule `O=C(c1cnc(N2CCSCC2)nc1-c1ccccc1F)N(Cc1ccccc1)C1CCCC1` [compound 157], the IC50 is 2 to 10 µM against CaV2.2, 2 to 10 µM against NaV1.3 and > 10 µM against NaV1.8.
`COc1cccc(N(C(=O)c2cnc(N3CCCCC3)nc2-c2ccccc2F)C2CC2)c1` [compound 158]: the 50% inhibitory concentration (IC50) against CaV2.2, against NaV1.3 and against NaV1.8 was > 10 µM throughout.
As to `O=C(c1cnc(N2CCOCC2)nc1-c1ccccc1F)N(Cc1ccccc1)C1CCCC1` [compound 159], the IC50 on CaV2.2, against NaV1.3 and at NaV1.8 was 2 to 10 µM in each case.
`COc1cccc(N(C(=O)c2cnc(N3CCOCC3)nc2-c2ccccc2F)C(C)C)c1` [compound 160]: the IC50 on CaV2.2, against NaV1.3 and at NaV1.8 was > 10 µM in each case.
For the molecule `CC(C)(C)c1ccc(CN(C(=O)c2cnc(N3CCOCC3)nc2-c2ccccc2F)C2CC2)cc1` [compound 161], the half-inhibitory concentration (IC50) against CaV2.2, on NaV1.3 and against NaV1.8 was 2 to 10 µM each time.
`COc1cccc(CN(C(=O)c2cnc(N3CCC4CCCCC4C3)nc2-c2ccccc2F)C(C)C)c1` (stereo not drawn) [compound 162]: the IC50 against CaV2.2 was < 2 µM; against NaV1.3, < 2 µM; on NaV1.8 it was > 10 µM.
In the case of `Cc1cccc(CN(C(=O)c2cnc(N3CCOCC3)nc2-c2ccccc2F)C2CC2)c1` [compound 163], the values for the IC50 against CaV2.2, on NaV1.3 and at NaV1.8 were 2 to 10 µM, > 10 µM and > 10 µM, respectively.
For `COc1ccc(CN(C(=O)c2cnc(N3CCSCC3)nc2-c2ccccc2F)C2CC2)cc1` [compound 164], the 50% inhibitory concentration (IC50) at CaV2.2, at NaV1.3 and against NaV1.8 was 2 to 10 µM in each case.
As to `CC(C)N(C(=O)c1cnc(N2CCOCC2)nc1-c1ccccc1F)c1cccc(C(C)(C)C)c1` [compound 165], the half-inhibitory concentration (IC50) was > 10 µM against CaV2.2, 2 to 10 µM against NaV1.3 and > 10 µM on NaV1.8.
For the molecule `CC(C)N(Cc1ccccc1)C(=O)c1cnc(N2CCN(C)CC2)nc1-c1ccccc1F` [compound 167], the concentration for half-maximal inhibition (IC50) on CaV2.2, against NaV1.3 and at NaV1.8 was > 10 µM in each case.
On to `CC(=O)Nc1ccc(-c2nc(N3CCOCC3)ncc2C(=O)N(Cc2ccccc2)C(C)C)cc1` [compound 168], for which the IC50 on CaV2.2, against NaV1.3 and at NaV1.8 was > 10 µM throughout.
Regarding `COc1cccc(N(C(=O)c2cnc(N3CCOCC3)nc2-c2ccccc2F)C2CCCC2)c1` [compound 169], the IC50 was > 10 µM on CaV2.2, 2 to 10 µM at NaV1.3 and > 10 µM against NaV1.8.
On to `CC(C)Oc1ccc(-c2nc(N3CCOCC3)ncc2C(=O)N(Cc2ccccc2)C(C)C)cc1` [compound 170], for which the IC50 against CaV2.2, at NaV1.3 and at NaV1.8 was > 10 µM throughout.
Consider `CC(C)N(C(=O)c1cnc(N2CCCCC2)nc1-c1ccccc1F)c1ccc2c(c1)OCCO2` [compound 171], for which the IC50 is 2 to 10 µM on CaV2.2, 2 to 10 µM against NaV1.3 and > 10 µM at NaV1.8.
As to `CC(C)N(C(=O)c1cnc(N2CCOCC2)nc1-c1ccccc1F)C1CCSC1` (stereo not drawn) [compound 172], the IC50 at CaV2.2, against NaV1.3 and against NaV1.8 was > 10 µM each time.
Take `CC(C)N(Cc1ccccc1)C(=O)c1cnc(NCCc2cccc(C(F)(F)F)c2)nc1-c1ccccc1F` [compound 173]: the IC50 was < 2 µM against CaV2.2, 2 to 10 µM against NaV1.3 and > 10 µM against NaV1.8.
On to `O=C(NC1CCC1)c1cnc(N2CCOCC2)nc1-c1ccccc1F` [compound 174], for which the IC50 at CaV2.2, at NaV1.3 and on NaV1.8 was > 10 µM throughout.
As to `COc1cccc(N(C(=O)c2cnc(N3CCCCC3)nc2-c2ccccc2Cl)C(C)C)c1` [compound 175], the IC50 at CaV2.2 is 2 to 10 µM; at NaV1.3, 2 to 10 µM; on NaV1.8 it was > 10 µM.
Regarding `CN1CCN(c2ncc(C(=O)N(Cc3ccc(C(C)(C)C)cc3)C3CC3)c(-c3ccccc3F)n2)CC1` [compound 176], the results for the half-maximal inhibitory concentration (IC50) at CaV2.2, against NaV1.3 and on NaV1.8 were 2 to 10 µM, > 10 µM and > 10 µM, respectively.
Turning to `CC(C)N(Cc1ccccc1)C(=O)c1cnc(Nc2cccc(Cl)c2)nc1-c1ccccc1F` [compound 177], the IC50 against CaV2.2, against NaV1.3 and on NaV1.8 was > 10 µM throughout.
Regarding `CC(C)N(C(=O)c1cnc(N2CCOCC2)nc1-c1ccccc1F)c1cccc([N+](=O)[O-])c1` [compound 178], the IC50 against CaV2.2, at NaV1.3 and at NaV1.8 was > 10 µM each time.
As to `CN1CCN(c2ncc(C(=O)N(Cc3ccccc3)C3CCC3)c(-c3ccccc3F)n2)CC1` [compound 180], the IC50 was 2 to 10 µM against CaV2.2, 2 to 10 µM at NaV1.3 and > 10 µM at NaV1.8.
With `CC(C)N(Cc1ccccc1)C(=O)c1cnc(Nc2ccc(F)cc2)nc1-c1ccccc1F` [compound 181], the IC50 against CaV2.2, against NaV1.3 and on NaV1.8 was > 10 µM in each case.
For the molecule `CC(C)N(C(=O)c1cnc(N2CCOCC2)nc1-c1ccccc1F)c1ccc2c(c1)OCO2` [compound 182], the figures for the IC50 against CaV2.2, against NaV1.3 and on NaV1.8 were 2 to 10 µM, > 10 µM and > 10 µM, respectively.
Consider `COc1cccc(N(C(=O)c2cnc(N3CCOCC3)nc2-c2ccccc2F)C2CC2)c1` [compound 183], for which the IC50 against CaV2.2, against NaV1.3 and at NaV1.8 was > 10 µM throughout.
For the molecule `COc1ccc(CN(C(=O)c2cnc(N3CCC4CCCCC4C3)nc2-c2ccccc2F)C2CC2)cc1` (stereo not drawn) [compound 184], the IC50 was 2 to 10 µM on CaV2.2, > 10 µM at NaV1.3 and > 10 µM against NaV1.8.
Turning to `COc1ccc(N(C(=O)c2cnc(N3CCOCC3)nc2-c2ccccc2F)C(C)C)cc1` [compound 185], the IC50 against CaV2.2 is 2 to 10 µM; at NaV1.3 it was > 10 µM; against NaV1.8, > 10 µM.
For the molecule `COc1cccc(CN(C(=O)c2c(C)nc(N3CCOCC3)nc2-c2ccccc2F)C(C)C)c1` [compound 186], the IC50 against CaV2.2 was 2 to 10 µM; against NaV1.3, 2 to 10 µM; against NaV1.8 it was > 10 µM.
Take `O=C(c1cnc(N2CCOCC2)nc1-c1ccccc1F)N1Cc2ccccc2C1` [compound 187]: the IC50 at CaV2.2, against NaV1.3 and against NaV1.8 was > 10 µM in each case.
